Patent publication US10575543B2, “Acetaldehyde precursors” (Firmenich SA, priority 2014, dated 2020)

What was measured:
[1] = Assessment of hydrolysis rate under spray drying feed conditions (pH 8.0 buffer/limonene emulsion); format: physicochemical; conditions: pH 8.0 phosphate buffer; for t50 at pH 8.0: precursor dissolved in limonene, emulsion, time to 50% of maximum absorbance
Protocol: Acetaldehyde precursors suitable for rendering into dry powders must avoid releasing significant levels of acetaldehyde during various stages of processing. In particular they should resist hydrolysis during the preparation of a spray drying feed emulsion, which can be neutral to basic pH and can contain a significant volume fraction of an oil phase.
A pH 8.0 buffer solution was prepared by adding 49.92 g disodium phosphate heptahydrate (CAS 7782-85-6) and 1.93 g monosodium phosphate (CAS 7558-80-7) to 1 L of deionised water. Aliquots of 0.20 g the Example 1-2 preparations were dissolved in 0.8 g of limonene (CAS 5989-25-7) added to 10 g of the buffer solution within a 30 mL Erlenmeyer flask containing a stir bar. The concentration of acetaldehyde in solution was monitored as a function of time using a UV/V is spectrometer probe measuring absorbance at 276 nm. Stirring was periodically stopped to allow oil droplets to rise to the surface and collect an unobscured absorbance reading of the aqueous solution. Release followed mixed zero and first order kinetics. t50 (the time to 50% of the maximum absorbance) values are reported in Table 2. […] Comparative Sample 1 has t50 of 2.1 minutes, which is so short that a person skilled in the art would consider this compound at risk of experiencing a problematic degree of hydrolysis during processing. Example 1 has a much longer t50 value and released acetaldehyde more slowly than Comparative Sample 1.

[2] = Assessment of hydrolysis rate at pH 3.0 (acetaldehyde release, UV absorbance at 276 nm); format: physicochemical; conditions: pH 3.0 buffer
Protocol: Instant beverage applications require rapid hydrolysis of the precursor molecules in order to rapidly release acetaldehyde. Because such beverages might be consumed immediately upon preparation, it is desired for the release to be as rapid as possible.
A pH 3.0 buffer solution was prepared by adding 16.43 g citric acid (CAS 77-92-9) and 4.26 g disodium citrate (CAS 144-33-2) to 1 L of deionized water. Aliquots of the Example 1-2 preparations were added to the buffer solution within a Distek 2100B USP 2 dissolution system stirring at 200 rpm. The concentration of acetaldehyde in solution was monitored as a function of time using a UV/V is spectrometer probe which measured absorbance at 276 nm every 1 second. Results for comparative samples were taken from work by Gassenmeier et al..

For `CCOC(C)OC(C)=O` (centres unmarked) [Comparative Sample 1, 1-ethoxyethyl acetate, reference compound], the t50 ([1]; limonene emulsion) was 2.1 min and the “t50 at pH 8.0” value [1] was 2.1 min.
For `C=CC1(C)CCC(C(C)(C)OC(C)OCC)O1` (centres unmarked) [Example 1, 5-(2-(1-ethoxyethoxy)propan-2-yl)-2-methyl-2-vinyltetrahydrofuran], the “Increase in absorbance at 276 nm (release of acetaldehyde)” value ([1]; limonene emulsion, over 1 hour) was “no measurable increase in absorbance over 1 hour”, the “t50 at pH 8.0” value [1] was >>1 hour and the “Rate of acetaldehyde release compared with comparative samples” value [2] was “released acetaldehyde faster than Comparative Samples 2-5”.
